We go through 1 compound from patent US20040024033A1 (priority 1998, published 2004).

Read-outs that look alike come from different tables or passages of the source.

Data set [1] in a line: Determination of the single i.v. dose MTD in normal mice. It is filed as in vivo, normal female BALB/c mice. As to conditions: for Body Weight Δ: mean ± SD. On the procedure: For the MTD determination, female BALB/c nude mice or BALB/c mice (obtained from Novartis Animal Farm, Sisseln, Switzerland) are treated once intravenously with epothilone B (n=3 per dose group). The dosage is increased (2, 4, 6, 8, 10 and 12 mg/kg) and the mice are observed for the presentation of overt toxic effects for 10 days after drug treatment.
Epothilone B is given as a single i.v. bolus dose at 2, 4, 6, 8, 10 or 12 mg/kg. Survival and body weights of the mice are monitored daily. Changes (Δ) in body weights are determined comparing the last measured body weight to that before treatment.

Data set [2] relates to human PC-3M prostate carcinoma cells. Kind of data set: Antitumor effect against orthotopically injected PC-3M cells. It counts as in vivo, male BALB/c nude mice. On the procedure:
Human prostate carcinoma PC-3M cells (1×10^6 cells per 20 μl phosphate buffered saline) are injected into the left […] of the prostate of each animal (n=6-9/group) according the method previously described (see Stephenson et al., J. Natl. Cancer Inst. 84, 951-7 (1992)). Treatment is started on day 14 after cell injection. At this time point a mean tumor weight of ˜20 mg is established. Epothilone B is administered either once or once weekly. Mice are sacrificed 42 days post tumor inoculation, and the prostates are carefully removed, dissected free of adhering tissue and weighed. […] Mesenteric lymph nodes are examined for the presence of metastases, dissected free of adhering tissue and weighed.
Tumor weight and body weights are monitored once or twice weekly. All treatments are administered intravenously (i.v.) and are initiated 14 days post cell injection. Treatment with epothilone B varies the dose and frequency of administration. Antitumor activity is expressed as T/C% (mean tumor weight of treated animals divided by the mean tumor weight of control animals multiplied by 100).
1×10^6 PC-3M cells in 20 μL of PBS are injected into the […] of the prostate of each male nude mouse (n=9 per group). Treatments are started on day 14 after tumor cell injection. epothilone B is administered i.v., once at 6 or 8 mg/kg, or once per week at 4 or 5 mg/kg. Antitumor activity is expressed as T/C% (mean tumor weight of treated animals divided by the mean of tumor weight of control animals multiplied by 100). Differences in body weights consider only animals surviving to the end of the experiment (day 42). Statistical analyses on A body weight uses paired t-tests comparing body weights before treatment to the end of treatment; mice weigh˜20-25 g at the start of treatment. Not significant is indicated by the abbreviation ,ns”.

Data set [3] concerns human COLO 205 colon tumors. It counts as in vivo, female BALB/c nude mice. The note with it: 4 mg/kg, day 32. As for the experimental part: Female or male BALB/c nu/nu (nude) mice are kept under sterile conditions (10 to 12 mice per Type III cage) with free access to food and water. Mice weigh between 20 and 25 grams at the time of tumor implantation. Tumors are established by subcutaneous injection of cells (minimum 2×10^6 cells in 100 μl PBS or medium) in carrier mice (4-8 mice per cell line). The resulting tumors are serially passaged for a minimum of three consecutive transplantations prior to start of treatment. Tumor fragments (approx. 25 mg) are implanted s.c. into the left flank of animals with a 13-gauge trocar needle while the mice are exposed to Forene (Abbott, Switzerland) anesthesia.
Tumor growth and body weights are monitored once or twice weekly. All treatments are administered intravenously (i.v.) and are initiated when a mean tumor volume of approximately 100 to 250 mm^3 is attained, depending upon the tumor type. Tumor volumes are determined using the formula […] (see Cancer Chemother. Pharmacol. 24:148-154, [1989]). Treatments with epothilone B vary the dose and the frequency of administration. Comparator agents are administered according to previously determined optimal treatment regimens. In addition to presenting changes in tumor volumes over the course of treatment, antitumor activity is expressed as T/C% (mean increase of tumor volumes of treated animals divided by the mean increase of tumor volumes of control animals multiplied by 100). Tumor regression (%) represents the smallest mean tumor volume compared to the mean tumor volume at the start of treatment, according to the formula Regression (%)=(1−Vend/Vstart)×100 (Vend=final mean tumor volume, Vstart=mean tumor volume at the start of treatment. Any animals in which the tumor has reached a size exceeding approximately 1.5 to 2.5 cm^3 are sacrificed. Details can be found below.
Tumor fragments of approximately 25 mg are implanted into the left flank of each female nude mouse (n=7 per group); a subcutaneous estrogen pellet is placed on the opposite flank. Treatments are started on day 14 after tumor transplantation. epothilone B is administered at 4 mg/kg, i.v., either once or once per week (days 14, 21, 28) or every second week (days 14 and 28). 5-fluorouracil is administered i.v. at 75 mg/kg on days 14, 21, 28. Data presented are from animals surviving to day 32, four days after the last treatments. Antitumor activity is expressed as T/C% (mean increase of tumor volumes of treated animals divided by the mean increase of tumor volumes of control animals multiplied by 100). Tumor regression (%) represents the final mean tumor volume compared to the mean tumor volume at the start of treatment. Changes (A) in tumor volumes represent the tumor volume on the last treatment day minus the tumor volume on the first treatment day.

[4] abbreviates: Experiment 1, 6 mg/kg single i.v. bolus.
Where [5] appears, read: Experiment 1, 8 mg/kg single i.v. bolus.
Where [6] appears, read: Experiment 1, 10 mg/kg single i.v. bolus.
The mark [7] stands for this setting: Experiment 1, 12 mg/kg single i.v. bolus.
[8] abbreviates: Experiment 2, 2 mg/kg single i.v. bolus.
The mark [9] stands for this setting: Experiment 2, 4 mg/kg single i.v. bolus.
Setting [10] is: Experiment 2, 6 mg/kg single i.v. bolus.
Where [11] appears, read: Experiment 2, 8 mg/kg single i.v. bolus.

On to `C/C(=C\c1csc(C)n1)[C@@H]1C[C@@H]2O[C@]2(C)CCC[C@H](C)[C@H](O)[C@@H](C)C(=O)C(C)(C)[C@@H](O)CC(=O)O1` [epothilone B], for which the Mortalities in data set [1] (setting [4]) was 1/3; in data set [1] (setting [5]), 3/3; in data set [1] (setting [6]), 3/3; in data set [1] (setting [7]), 3/3; in data set [1] (setting [8]), 0/3; in data set [1] (setting [9]), 0/3. The Mortalities in data set [1] (setting [10]) is 2/3; in data set [1] (setting [11]), 3/3. Further, the “Body Weight Δ” value was -6.1 ± 0.9 g in data set [1] (setting [4]); -5.1 ± 3.2 g in data set [1] (setting [5]); -5.6 ± 0.6 g in data set [1] (setting [6]); -5.4 ± 2.9 g in data set [1] (setting [7]); 2.3 ± 0.6 g in data set [1] (setting [8]); 1.3 ± 0.6 g in data set [1] (setting [9]). Further, the “Body Weight Δ” value in data set [1] (setting [10]) is -5.3 ± 0.6 g; in data set [1] (setting [11]), -5.0 ± 1.0 g. Besides, the “Δ Body Weight” value in data set [2] (4 mg/kg, i.v. once per week) is -1.2 g; in data set [2] (5 mg/kg, i.v. once per week), -6.8 g; in data set [2] (6 mg/kg, i.v. once) it was -1.4 g; in data set [2] (8 mg/kg, i.v. once), -5.2 g. Moreover, the T/C result in data set [3] (i.v. every 7 days), in data set [3] (i.v. every 14 days) and in data set [3] (i.v. once) was “Regres-” each time.
